These results are taken from patent US20230346948A1, “Lipid conjugated peptide inhibitors of PICK1” (University of Copenhagen, priority 2020, published 2023).

In data set [1] the target is T1, PICK1 (Rattus norvegicus, UniProt Q9EP80).
T1 construct: Full length rat PICK1 (pET41) was prepared as described earlier; inferred from pET41 vector and Glutathione-Sepharose capture) (N, cleaved yes); made in house; host or cells: E. coli BL21-DE3-pLysS
The experiment in a line: Fluorescence polarization competition binding to recombinant PICK1. As for the experimental part:
Full length rat PICK1 (pET41) was prepared as described earlier (Madsen et al., 2005). In brief, PICK1 was expressed in BL21-DE3-pLysS cells and grown at 37° C., induced at OD600=0.6 with 1 mM Isopropyl β-D-1-thiogalactopyranoside (IPTG) and grown 16 hrs at 20° C. Cultures were harvested and re-suspended in 50 mM trisaminomethane (Tris), 125 mM NaCl, 2 mM Dithiothreitol (DTT, Sigma), 1% Triton X-100 (Sigma), 20 μg/mL DNAse 1 and 1⁄2 a tablet cOmplete protease inhibitor cocktail (Roche) pr. 1 L culture. The re-suspended pellets were frozen at -80° C. for later purification. […] Each column was sealed and 0.075 U/μL, Novagen® was added for cleavage 0/N at 4° C. under gentle rotation. PICK1 was eluted on ice and absorption at 280 nm was measured on TECAN plate reader or on a NanoDrop3000. The protein concentration was determined using lambert beers law (A=ε[…]=32320 (cm*mol/L)^-1. Fluorescence polarization: Fluorescence polarization was carried out in competition mode at a fixed concentration of protein and tracer (5[…], 5 nM or 5[…], 20 nM), against an increasing concentration of indicated unlabelled peptide. The plate was incubated for 2 hours on ice in a black half-area Corning Black non-binding surface 96-well plate. The fluorescence polarization was measured directly on an Omega POLARstar plate reader using excitation filter at 488 nm and long pass emission filter at 535 nm. The data was plotted using GraphPad Prism 8.3, and fitted to the One site competition, to extract Ki,app value.
A general note: In fluorescence polarisation assays a small probe gives low polarisation when free and higher when bound to something large.

The nature of data set [2]: Size exclusion chromatography, self-assembly in solution. The following applies: Superdex200 Increase 10/300. In kind it is physicochemical. The procedure: Size exclusion chromatography: Size exclusion chromatography was done using an Äkta purifier with a Superdex200 Increase 10/300 column, where 500 μL of […] or […] at the indicated concentration was injected onto the column. Absorbance profile was measured at 280 nm and plotted against elution volume using Graph Pad Prism 8.3.

The nature of data set [3]: Small angle X-ray scattering, self-assembly in solution. In kind it is physicochemical. The procedure:
Concentration series of […] ranging from 0.18 mg/ml to 9.37 mg/mL was prepared in buffer containing 50 mM Tris (pH 7.4), 125 mM NaCl. Samples were measured at the P12 SAXS Beamline, […], Hamburg, Germany. Preliminary data reduction including radial averaging and conversion of the data into absolute scaled scattering intensity, I(q), as a function of the scattering vector q, where q=4π sin(θ)/λ ([…]=half scattering angle) were done using the standard procedures at the beamline. The modelling of the SAXS data was performed in two ways, firstly using the pair distance distribution function and subsequently using a molecular constrained core-shell model for polydisperse spheres. In brief, it was assumed that the peptide aggregated into polydisperse spherical micelles. Here, the hydrophobic tails form the core and these are surrounded by the hydrophilic part (the shell) in a spherical micelle. […] This was calculated by counting the number of electrons in the molecular structure and multiplying by the scattering length of the electron. For the scattering length density calculations, it was assumed that the molecular volume of the C13 alkyl chain was 377 Å3 as estimated from Tanfords empirical formula (V=27.4+26.9nC) where nC denote the number of carbons. i.e. 13 in this case. The hydrophilic headgroup was as a first estimate assumed to have a mass density corresponding to that of a soluble protein (i.e. 1.35 g/cm^3), this yielded a molecular volume of 2078 Å3. […] Excess scattering length densities were then calculated in relation to water (9.4e101/cm^2). Using this molecular restrained model, the volumes of the core and of the shell were coupled internally through the fitted aggregation number, Nagg. The polydispersity was described by a Gauss function of Nagg. The Gauss was truncated at ±3sigma. The model module “[…]” from the […] software was used for the fitting. As usual a small surface roughness and a small constant background was also necessary for the model to converge. Scattering data was merged; buffer subtracted and binned using WillItRebin with a binning factor of 1.02. The pair distance distribution functions (pddf) were fitted using bayesapp (http://www.bayesapp.org/) in the interval [0.0122-0.4] Å^-1, fitting parameters are reported in the data collection table below.

A short description of data set [4]: Chemical stability in PBS for 30 days, HPLC-UV-MS. In kind it is physicochemical. The procedure:
Stability was addressed by […] for four concentration 2, 20, 50 and 200 μM, by leaving […] in PBS at 5 and […] for 30 days followed by HPLC-UV-MS method

Where [5] appears, read: pair distance distribution function analysis.

T1 sequence (Q9EP80 whole entry): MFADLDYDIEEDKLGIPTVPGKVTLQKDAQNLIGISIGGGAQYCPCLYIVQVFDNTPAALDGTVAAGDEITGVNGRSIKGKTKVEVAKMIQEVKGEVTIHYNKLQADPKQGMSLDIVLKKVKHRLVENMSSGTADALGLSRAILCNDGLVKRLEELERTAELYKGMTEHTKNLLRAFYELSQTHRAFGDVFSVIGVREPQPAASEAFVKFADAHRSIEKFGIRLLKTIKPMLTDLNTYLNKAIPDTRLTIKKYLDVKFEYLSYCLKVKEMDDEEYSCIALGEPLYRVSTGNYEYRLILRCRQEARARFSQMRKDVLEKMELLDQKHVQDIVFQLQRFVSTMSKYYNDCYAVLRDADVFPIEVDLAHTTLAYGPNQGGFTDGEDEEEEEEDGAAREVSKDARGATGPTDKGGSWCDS

For `CCCCCCCCCCCCCC(=O)N(CCOCCOCCC(=O)N[C@@H](Cc1c[nH]cn1)C(=O)N[C@@H](Cc1c[nH]c2ccccc12)C(=O)N[C@@H](CC(C)C)C(=O)N[C@@H](CCCCN)C(=O)N[C@H](C(=O)O)C(C)C)CCOCCOCCC(=O)N[C@@H](Cc1c[nH]cn1)C(=O)N[C@@H](Cc1c[nH]c2ccccc12)C(=O)N[C@@H](CC(C)C)C(=O)N[C@@H](CCCCN)C(=O)N[C@H](C(=O)O)C(C)C` [myr-NPEG4-(HWLKV)2], the “affinity increase compared to HWLKV” value in data set [1] (FP competition) is reported as > 1000 fold. Besides, in data set [1] (FP competition), the “affinity increase compared to NPEG4-(HWLKV)2” value is reported as > 50 fold. Further, the Ki in data set [1] (tracer 5FAM-NPEG4-(HWLKV)2 5 nM or 5FAM-HWLKV 20 nM (vs HWLKV), 2 hours on ice, read-out: Ki,app) came to 3 nM. In addition, the “SEC elution compared with unconjugated NPEG4-(HWLKV)2” value in data set [2] was “eluted at lower elution volume”. For the same compound, the “n myr-NPEG4-(HWLKV)2, core shell model” value in data set [3] (300 μM) amounted to 19; in data set [3] (400 μM), 22; in data set [3] (1000 μM), 22; in data set [3] (3000 μM), 21; in data set [3] (5000 μM) it was 19. Besides, the “number of individual molecules per micelle” value in data set [3] (core-shell model) is 19-22. Moreover, the “outer radius of spherical core-shell micelle” value in data set [3] (core-shell model) was 20-24 Å. In data set [3] (setting [5]), the “number of individual molecules per assembly” value is on record as 5-8. In addition, the “radius of gyration (Rg) of micellar structures” value in data set [3] (setting [5]) is given as 20-23.6 Å. The “Measured Conc. mPD5” value is 0.5 µM in data set [4] (30 days @5° C, nominal 2 μM); 17 µM in data set [4] (30 days @5° C, nominal 20 μM); 49 µM in data set [4] (30 days @5° C, nominal 50 μM); 194 µM in data set [4] (30 days @5° C, nominal 200 μM); 0.4 µM in data set [4] (30 days @25° C, nominal 2 μM); 17 µM in data set [4] (30 days @25° C, nominal 20 μM). Further, the “Measured Conc. mPD5” value in data set [4] (30 days @25° C, nominal 50 μM) worked out at 48 µM; in data set [4] (30 days @25° C, nominal 200 μM) it was 203 µM. For the same compound, the “chemically stable for” value in data set [4] (+5° C. and +25° C. in the vehicle compositions) is listed as “at least 30 days”. The degradation entry in data set [4] (PBS, 30 days, +5° C. and +25° C.) is “No degradation was observed”. Moreover, the purity after storage in data set [4] (samples with 200 and 50 μM, 30 days in PBS) is reported as > 98%.
